From ChEMBL document CHEMBL4706648, “Antitubercular 2-Pyrazolylpyrimidinones: Structure-Activity Relationship and Mode-of-Action Studies” (J Med Chem, 2021)
Converted amounts (≈) assume the structure as drawn. The source made the active and inactive calls. The rule behind the calls is not given here.

Columns and labels:
[1] = test system: Mycobacterium tuberculosis; experiment: Antimycobacterial activity against mmpL3 gene silenced Mycobacterium tuberculosis H37Rv assessed as inhibition of bacterial growth grown under middlebrook 7H9 medium incubated for 7 days by alamar blue broth microdilution method; assay type: functional, organism-based; settings: time 7.0 day
[2] = test system: Mycobacterium tuberculosis; assay type: functional; settings: H37Rv, 168 h, time 7 day
CHO = experiment: Cytotoxicity against CHO cells assessed as reduction in cell viability by MTT assay; assay type: cell-based; settings: Cricetulus griseus
[3] = test system: Mycobacterium tuberculosis; experiment: Antimycobacterial activity against wild-type Mycobacterium tuberculosis H37Rv assessed as inhibition of bacterial growth grown under middlebrook 7H9 medium incubated for 7 days by alamar blue broth microdilution method; assay type: functional; settings: 168 h, time 7 day
[4] = Aqueous solubility of compound at pH 7.4; assay type: physicochemical
[5] = Metabolic stability in rat liver microsomes assessed as parent compound remaining after 30 mins; assay type: ADME, Microsome; settings: 0.5 h
[6] = Metabolic stability in mouse liver microsomes assessed as parent compound remaining after 30 mins; assay type: ADME, Microsome; settings: 0.5 h
[7] = Kinetic solubility of compound at 200 uM at pH 7.4 measured after 20 hrs by HPLC-DAD analysis; assay type: physicochemical; settings: buffer, pH 7.4, 20 h
[8] = Metabolic stability in human liver microsomes assessed as parent compound remaining after 30 mins; assay type: ADME, Microsome; settings: 0.5 h
Vero = experiment: Cytotoxicity against African green monkey Vero cells assessed as reduction in cell viability by MTT assay; assay type: cell-based; settings: Chlorocebus sabaeus
[9] = Protein binding in human plasma assessed as unbound fraction at 5 uM incubated for 1 hr at 37 degreeC and measured after 4 hrs by ultracentrifugation based LC-MS/MS analysis; assay type: ADME, cell-free; settings: 5 h
[10] = test system: Mycobacterium tuberculosis; experiment: Bactericidal activity against Mycobacterium tuberculosis H37Rv assessed as reduction in CFU grown under middlebrook 7H9/OADC-Glycerol-Tween80 medium at 1 to 2 times MIC incubated for 7 days; assay type: functional; settings: time 7 day

Row | Compound | MIC [2] | IC50 (CHO) | solubility ([4]; aqueous, read-out: solubility) | solubility ([4]; buffer) | also measured
1 | COCCNc1cc(C)nn1-c1nc(C(F)(F)F)cc(=O)[nH]1 | 2 µM (≈ 0.635 µg/mL) | 17 µM | 200 µM (≈ 63.5 µg/mL) |  | Activity [1]: Active; MIC [3]: 1.2 µM (≈ 0.381 µg/mL)
2 | Cc1cc(C)n(-c2nc(-c3ccc(F)cc3)c(C#N)c(=O)[nH]2)n1 | > 50 µM | > 50 µM |  | 30 µM (≈ 9.28 µg/mL) | 
3 | Cc1cc(C(=O)O)nn1-c1nc(-c2ccc(F)cc2)cc(=O)[nH]1 | > 50 µM |  |  | 155 µM (≈ 48.7 µg/mL) | 
4 | Cc1cc(C2CC2)n(-c2nc(C(F)(F)F)cc(=O)[nH]2)n1 | 12 µM (≈ 3.41 µg/mL) | 78 µM |  | 160 µM (≈ 45.5 µg/mL) | 
5 | Cc1cc(C)n(-c2cc(-c3ccccc3)nc(=O)[nH]2)n1 | 2 µM (≈ 0.533 µg/mL) | 10 µM |  | 30 µM (≈ 7.99 µg/mL) | 
6 | Cc1cc(NCCO)n(-c2nc(C(F)(F)F)cc(=O)[nH]2)n1 | 37 µM (≈ 11.2 µg/mL) |  | 200 µM (≈ 60.6 µg/mL) |  | 
7 | Cc1nn(-c2nc(C(F)(F)F)cc(=O)[nH]2)c(C)c1Br | 25 µM (≈ 8.43 µg/mL) | > 50 µM | 200 µM (≈ 67.4 µg/mL) |  | 
8 | Cc1cc(C)n(-c2nc(-c3ccc(F)cc3)c(C(=O)O)c(=O)[nH]2)n1 | > 50 µM | > 50 µM |  | 190 µM (≈ 62.4 µg/mL) | 
9 | COc1cc(-c2ccccc2)nc(-n2nc(C)cc2C)n1 | > 50 µM | > 50 µM | 200 µM (≈ 56.1 µg/mL) |  | 
10 | Cc1cc(C)n(-c2nc(-c3ccccc3)c(C)c(=O)[nH]2)n1 | 2 µM (≈ 0.561 µg/mL) | 25 µM |  | 120 µM (≈ 33.6 µg/mL) | Stabilty [5]: 54%; Stabilty [6]: 45%; Kinetic_solubility [7]: 120 µM; Stabilty [8]: 65%
11 | Cc1nn(-c2nc(C(F)(F)F)cc(=O)[nH]2)c(C)c1-c1cccnc1 | > 50 µM |  |  | 195 µM (≈ 65.4 µg/mL) | 
12 | Cc1cc(C)n(-c2nc(-c3ccc(N4CCOCC4)cc3)cc(=O)[nH]2)n1 | > 125 µM |  |  | 40 µM (≈ 14.1 µg/mL) | 
13 | Cc1cc(C)n(-c2nc(-c3ccccc3)cc(=O)n2C)n1 | > 50 µM |  | 200 µM (≈ 56.1 µg/mL) |  | IC50 (Vero): 357 µM
14 | Cc1cc(NC2CCOCC2)n(-c2nc(C(F)(F)F)cc(=O)[nH]2)n1 | 1.56 µM (≈ 0.536 µg/mL) | 18 µM |  | 50 µM (≈ 17.2 µg/mL) | Stabilty [5]: > 99%; Stabilty [6]: 93%; Fu [9]: 0.014; Kinetic_solubility [7]: 50 µM; Stabilty [8]: > 99%
15 | Cn1ccnc1-c1nc(-c2ccccc2)cc(=O)[nH]1 | 20 µM (≈ 5.05 µg/mL) | 4 µM | 200 µM (≈ 50.5 µg/mL) |  | 
16 | Cc1cc(CN(C)C)nn1-c1nc(C(F)(F)F)cc(=O)[nH]1 | > 50 µM |  | 200 µM (≈ 60.3 µg/mL) |  | 
17 | CCc1cc(C)nn1-c1nc(C(F)(F)F)cc(=O)[nH]1 | 12 µM (≈ 3.27 µg/mL) | 108 µM | 200 µM (≈ 54.4 µg/mL) |  | 
18 | Cc1cc(C(=O)N(C)C)nn1-c1nc(-c2ccc(F)cc2)cc(=O)[nH]1 | > 50 µM |  |  | 65 µM (≈ 22.2 µg/mL) | 
19 | CNC(=O)c1ccc(-c2cc(=O)[nH]c(-n3nc(C)cc3C)n2)cc1 | > 50 µM | > 50 µM |  | 70 µM (≈ 22.6 µg/mL) | 
20 | Cc1cc(C)n(-c2nc(-c3ccc(S(C)(=O)=O)cc3)cc(=O)[nH]2)n1 | > 50 µM | > 50 µM |  | 8 µM (≈ 2.76 µg/mL) | 
21 | CC(=O)Nc1cc(C)nn1-c1nc(-c2ccccc2)cc(=O)[nH]1 | 6 µM (≈ 1.86 µg/mL) |  |  | 150 µM (≈ 46.4 µg/mL) | Activity [1]: Active; MIC [3]: 27 µM (≈ 8.35 µg/mL); IC50 (Vero): 35 µM
22 | Cc1cc(C)n(-c2nc(-c3ccc(F)cc3)c(C(N)=O)c(=O)[nH]2)n1 | > 50 µM |  |  | 110 µM (≈ 36 µg/mL) | 
23 | Nc1cc(C2CC2)nn1-c1nc(C(F)(F)F)cc(=O)[nH]1 | 25 µM (≈ 7.13 µg/mL) | 24 µM |  | 10 µM (≈ 2.85 µg/mL) | 
24 | CO[C@H]1/C=C/O[C@@]2(C)Oc3c(C)c(O)c4c(O)c(c(/C=N/N5CCN(C)CC5)c(O)c4c3C2=O)NC(=O)/C(C)=C\C=C\[C@H](C)[C@H](O)[C@@H](C)[C@@H](O)[C@@H](C)[C@H](OC(C)=O)[C@@H]1C [RIFAMPIN] |  |  |  |  | Activity [10]: 2 log10CFU
25 | Cc1nn(-c2nc(C(F)(F)F)cc(=O)[nH]2)c(C)c1N1CCOCC1 | 6.25 µM (≈ 2.15 µg/mL) | > 50 µM |  | 160 µM (≈ 54.9 µg/mL) | Fu [9]: 0.03; Kinetic_solubility [7]: 160 µM
